The test system of experiment [1] is cultivars carrying the recessive allele su-B1 (e.g., Chinese Spring). The note with it: Snape et al, 1991; cited from earlier work.
Experiment [2] relates to lines of diploid Aegilops species. Nature of the experiment: Reaction of lines of diploid Aegilops species to chlorotoluron. The experiment is classed as in vivo. Particulars: most lines. From the text:
(§1) Different cultivars of common wheat show different reaction to the herbicide chlorotoluron and to other phenyl derivatives of urea; several cultivars carrying the dominant allele Su-B1 (e.g., Cappelle Desprez) are resistant while others carrying the recessive allele su-B1 (e.g., Chinese Spring) are susceptible (Snape et al, 1991). The gene is located on the long arm of chromosome 6B (6BL) about 0.5 cM from the centromere. […] Since chromosome 6S^sL of Ae. searsii pairs almost regularly with 6S^lL of Ae. longissima, it is possible to transfer the resistance allele to the 6S^lL arm of the engineered chromosome EC-H (FIGS. 8a,b), thus producing the engineered chromosome of the EC-HR type. […] The presence of the chlorotoluron resistance allele on the engineered chromosome facilitates the selective killing, in each generation, of the male-sterile plants that lack the engineered chromosome while unaffecting the male-fertile maintainer plants (with the engineered chromosome) in the progeny of the selfed maintainer. This will assure, that in each generation, only the male-fertile offspring of the selfed maintainer, will grow.

Experiment [3] concerns line of Ae. searsii carrying the chlorotoluron resistance allele Su-S^s1. Nature of the experiment: Spraying chlorotoluron on the Ae. searsii line carrying Su-S^s1. Format: in vivo, Aegilops searsii. The note with it: sprayed at double the rate recommended at commercial fields.
Source text: as §1, with “grow. […]” for “grow.”

In experiment [4] the test system is plants with 2n=43 carrying the EC-HR1. Nature of the experiment: Chlorotoluron on selfed progeny of EC-HR1 monosomic addition plants, 2n=43. Format: in vivo, common wheat. From the text: (§2) To construct the engineered chromosome EC-HR1, the dominant chlorotoluron resistance allele Su-S^s1 is transferred from chromosome arm 6S^sL of a selected line of Ae. searsii into the 6S^lL arm of the engineered chromosome EC-H1. This is achieved by crossing a […] female parent derived from the male-fertile maintainer line in the common wheat cultivar Chinese Spring. This female parent is homozygous for the ms-B1, su-B1 and Ki-B1 alleles and has, as a monosomic addition, the engineered chromosome EC-H1 (4S^sS/6S^lL) carrying on its short arm the Ms-S^s1 and rht-S^s1 alleles and on its long arm the su-S1ki-S^l1-a alleles, with a line of the diploid species Ae. searsii carrying the chlorotoluron resistance allele on the long arm of chromosome 6S^s, i.e., on 6S^sL, as well as the Ms-S^s1 and rht-S^s1 alleles on 4S^sS. About 20% of the F1 progeny have the engineered chromosome EC-H1 and therefore contain 2n=29 chromosomes and can be distinguished from the other F1 plants having 2n=28. […] Pollinating the 2n=29 F1 plants once or twice with Chinese Spring, homozygous for su-B1 yields plants with 2n=43 (21″+1′) containing the desired engineered chromosome EC-HR1 as a monosomic addition.

The test system of experiment [5] is plants with 2n=42 (lacking the EC-HR1). Nature of the experiment: Chlorotoluron on selfed progeny of EC-HR1 monosomic addition plants, 2n=42. The experiment is classed as in vivo, common wheat.
Source text: as §2

Experiment [6] has as its system plants of common wheat homozygous for the herbicide susceptibility allele su-B1. Nature of the experiment: Spraying chlorotoluron on common wheat homozygous for su-B1. Format: in vivo. Particulars: sprayed at double the rate recommended at commercial fields. From the text: To test the effect of chlorotoluron on the various genotypes we sprayed this herbicide at a rate which is double of the recommended at commercial fields on plants of common wheat homozygous for the herbicide susceptibility allele su-B1 and the line of Ae. searsii carrying the chlorotoluron resistance allele Su-S^s1. All plants carrying the recessive su-B1 allele died within 10-14 days from spraying while those carrying the dominant Su-S^s1 allele survived.

Experiment [7] has as its system cultivars carrying the dominant allele Su-B1 (e.g., Cappelle Desprez). The note with it: Snape et al, 1991; cited from earlier work.

As for `Cc1ccc(NC(=O)N(C)C)cc1Cl` [chlorotoluron, 3-(3-chloro-p-tolyl)-1,1-dimethylurea], the “reaction to the herbicide” value in experiment [1] is on record as “susceptible”; in experiment [2] it was “susceptible”; in experiment [7], “resistant”. In addition, the “outcome of plants after spraying” value in experiment [3] is recorded as “survived”; in experiment [6], “died”. Moreover, in experiment [4], the “effect on plants carrying EC-HR1” value is “unaffected”. Further, the “effect on plants lacking the resistance allele” value in experiment [5] is recorded as “kills all plants”. For the same compound, the “time to death from spraying” value in experiment [6] fell in the range of 10 to 14 days.

Values taken from patent US6407311B1, “Methods for production of hybrid wheat” (Yeda Research & Development Co., Ltd., priority 1997, dated 2002).
